Results reported in patent US6908915B1, “Tricyclic compounds and their uses as antiarrhythmic antifibrillatory and defibrillatory agents” (Technion Research & Development Foundation Ltd., priority 2000, dated 2005).

System: artificially induced SVF
Experiment: Transformation of electrically induced SVF to TVF in anesthetized cats (antiarrhythmic defibrillating activity)
Format: in vivo
Settings: intravenous, VF type examined before and 2 to 3 min after drug; for Relative activity in dosage of 1 mg/kg: monohydrochloride
Description: 10,11-dihydro-5-[(3-N-alkyl)1-oxopropyl] 5-H-dibenzo[b,f]azepin monohydrochloride, 10,11-dihydro-5-[N-? isopropylamino-2propanol)] 5-H-dibenzo [b,f]azepin monohydrochloride and 11-Oxo-10,11-dihydro-5-[(N-alkyl)1-oxopropyl]-5-H-dibenzo [b,e] [1,4] diazepin hydrochloride were synthesized as is described hereinabove and tested for their effectiveness in transforming SVF to TVF, as described herein. […] The experimental method was as follows.
Hydrochloride salts of the compounds were dissolved in saline. Activity of each compound was tested in cats of both sexes. Cats were anesthetized with 15-25 mg/kg intravenous sodium, pentobarbital. The tested compounds were injected intravenously (1-3 mg/kg). The heart of each experimental subject was exposed through midline thoracotomy, and a room air respirator was applied through a tracheal cannula. Lead II electrocardiogram and intra-arterial blood pressure was recorded on a Grass Polygraph (Grass Instrument Co., Quincy, Mass., USA).
Fibrillating stimuli (a train of rectangular pulses of 2 to 15 V, 100 pulses/sec and duration of 0.1 to 1.0 msec, for a period of 1 sec) were delivered through two silver needle electrodes attached to the pericardium on the left ventricle. Fibrillating stimuli were one and a half to twice the strength of the fibrillating threshold.
VF was induced before and after drug administration, according to a previously described procedure. The type of VF was examined before and 2 to 3 min after drug treatment. Each cat served as its own control. In some experiments, a β-adrenergic blocker (propranolol, 0.1-0.6 mg/kg) was administered after drug administration, in order to evaluate the neutralizing effect of the blocker on the compound-induced catecholamine levels. Table l below presents the results.

Structure (SMILES)	Relative activity in dosage of 1 mg/kg [%]	Relative activity in dosage of 2 mg/kg [%]
CC(C)NCC(O)CN1c2ccccc2CCc2ccccc21.Cl (stereo not drawn) [Compound 25bi]	100	100
CC(C)NCC(O)CN1c2ccccc2CCc2ccccc21.Cl (stereo not drawn) [Compound 25bir]	50	100
CC(C)NCC(O)CN1c2ccccc2CCc2ccccc21.Cl (stereo not drawn) [Compound 25bis]	100	100
